Source: the NIST ThermoML archive (doi:10.1016/j.fluid.2013.06.013)

What was measured:
[1] = refractive index (Na D-line) (dimensionless); details: 298.15 K; 101.33 kPa; Liquid; Standard Abbe refractometry
[2] = 298.15 K; 101.33 kPa; Liquid; Vibrating tube method
[3] = xn = mol fraction of the nth substance listed; details: 298.15 K, 101 kPa, Liquid, Vibrating tube method
[4] = refractive index (Na D-line) (dimensionless); xn = mol fraction of the nth substance listed; details: 298.15 K, 101 kPa, Liquid, Standard Abbe refractometry

CC(CC(C)(C)C)CP(=O)([O-])CC(C)CC(C)(C)C.CCCCCCCCCCCCCC[P+](CCCCCC)(CCCCCC)CCCCCC
Details	mass density [kg/m3]	refractive index
[1]	–	1.47125
[2]	886.43	–

CCCC[n+]1ccn(C)c1.O=S(=O)([N-]S(=O)(=O)C(F)(F)F)C(F)(F)F
Details	mass density [kg/m3]	refractive index
[1]	–	1.42689
[2]	1436.16	–

CCn1cc[n+](C)c1.O=S(=O)([N-]S(=O)(=O)C(F)(F)F)C(F)(F)F
Details	mass density [kg/m3]	refractive index
[1]	–	1.42293
[2]	1518.86	–

CCCCn1cc[n+](C)c1.F[P-](F)(F)(F)(F)F [1-butyl-3-methylimidazolium hexafluorophosphate]
Details	mass density [kg/m3]	refractive index
[1]	–	1.40926
[2]	1366.95	–

CCCCCCn1cc[n+](C)c1.F[B-](F)(F)F [1-hexyl-3-methylimidazolium tetrafluoroborate]
Details	mass density [kg/m3]	refractive index
[1]	–	1.42844
[2]	1144.46	–

CCCCCCCC[n+]1ccn(C)c1.F[B-](F)(F)F [1-methyl-3-octylimidazolium tetrafluoroborate]
Details	mass density [kg/m3]	refractive index
[1]	–	1.43306
[2]	1101.99	–

CC(=O)CC(C)=O [2,4-pentanedione]
Details	mass density [kg/m3]	refractive index
[1]	–	1.4509
[2]	971.07	–

CC(=O)CC(C)=O [2,4-pentanedione] + CC(CC(C)(C)C)CP(=O)([O-])CC(C)CC(C)(C)C.CCCCCCCCCCCCCC[P+](CCCCCC)(CCCCCC)CCCCCC
Details	mass density, [3] [kg/m3]	refractive index, [4]
x1 = 0.0517	888.32	1.4714
x1 = 0.0958	889.43	1.4721
x1 = 0.2082	892.48	1.4731
x1 = 0.2986	895.05	1.4742
x1 = 0.3991	898	1.4751
x1 = 0.499	901.47	1.475
x1 = 0.6013	905.75	1.4753
x1 = 0.7004	911.47	1.474
x1 = 0.7998	919.31	1.4716
x1 = 0.9	933.94	1.4659
x1 = 0.95	946.89	1.4602

CCCCCCCCCCCCCC[P+](CCCCCC)(CCCCCC)CCCCCC.N#C[N-]C#N [tetradecyl(trihexyl)phosphonium dicyanamide]
Details	mass density [kg/m3]	refractive index
[1]	–	1.48154
[2]	899.14	–

CCCCCCCCCCCCCC[P+](CCCCCC)(CCCCCC)CCCCCC.N#C[N-]C#N [tetradecyl(trihexyl)phosphonium dicyanamide] + CC(=O)CC(C)=O
Details	mass density, [3] [kg/m3]	refractive index, [4]
x2 = 0.0599	899.94	1.481
x2 = 0.113	900.73	1.4808
x2 = 0.2	902.2	1.4801
x2 = 0.3143	904.54	1.4795
x2 = 0.4094	906.97	1.4785
x2 = 0.5016	909.92	1.4773
x2 = 0.5967	913.83	1.4757
x2 = 0.7002	919.76	1.4732
x2 = 0.8004	928.35	1.47
x2 = 0.9	942.61	1.463
x2 = 0.9496	953.89	1.4578

CCCCCCCCCCCCCC[P+](CCCCCC)(CCCCCC)CCCCCC.[Cl-] [trihexyl(tetradecyl)phosphonium chloride]
Details	mass density [kg/m3]	refractive index
[1]	–	1.48175
[2]	891.82	–

CCCCCCCCCCCCCC[P+](CCCCCC)(CCCCCC)CCCCCC.[Cl-] [trihexyl(tetradecyl)phosphonium chloride] + CC(=O)CC(C)=O
Details	mass density, [3] [kg/m3]	refractive index, [4]
x2 = 0.0586	892.92	1.4811
x2 = 0.0977	893.66	1.481
x2 = 0.1957	895.67	1.481
x2 = 0.2949	898.11	1.4805
x2 = 0.3989	901.25	1.4799
x2 = 0.4985	905.14	1.478
x2 = 0.6092	910.91	1.4759
x2 = 0.7096	918.02	1.4741
x2 = 0.8008	926.85	1.4705
x2 = 0.9036	942.76	1.4633
x2 = 0.9508	953.8	1.458

CCCCCCCCN(CCCCCCCC)CCCCCCCC [trioctylamine]
Details	mass density [kg/m3]	refractive index
[1]	–	1.44758
[2]	807.46	–

O [water]
Details	refractive index
[1]	1.33249
